Measured values reported in patent publication US20230015949A1, “NEISSERIA TREATMENT USING CANNABINOIDS” (priority 2019, published 2023).
In brackets after ≈: the same amount, converted by molar mass. Entries after “also recorded” stand apart in the source; their conditions may differ. Like-named read-outs stand apart in the source and are kept apart here.

Experiments:
Neisseria gonorrhoeae = assay: Broth microdilution MIC assay, 30 isolates (Example 2); type: cell-based
Experimental: In this study, the in vitro spectrum of activity of CBD was determined against 30 isolates comprised of reference strains from the WHO, isolates from the CDC antibiotic resistance bank, and clinical isolates from the Micromyx (MMX) repository, with different resistance phenotypes. Assays were conducted following guidelines recommended by the Clinical and Laboratory Standards Institute (CLSI; 1, 2) with the exception that broth microdilution was used instead of agar dilution.
Stock solutions of all compounds were prepared on the day of testing using solvents recommended by CLSI. Stock solutions of all compounds were made at 101× the final testing concentration. CBD was supplied by Cerilliant (Round Rock, Tex.) as a 1 mg/mL methanolic solution which was stored at −20° C. after receipt. Prior to testing, using a 5 mL aliquot of the CBD methanolic solution, the methanol was dried off and the residual CBD was resuspended in 774 μL DMSO resulting in a 6.464 mg/mL solution.
The test organisms evaluated in this study consisted of Neisseria gonorrhoeae isolates from the Micromyx repository and reference isolates from the American Type Culture Collection (ATCC; Manassas, Va.), Centers for Disease Control and Prevention (CDC; Atlanta, Ga.) or the National Collection of Type Cultures (NCTC; Public Health England, Salisbury, UK). Upon initial receipt at Micromyx, the organisms were sub-cultured onto an appropriate agar medium.
(§1) Following incubation, colonies were harvested from these plates and cell suspensions prepared and frozen at −80° C. with a cryoprotectant. Prior to testing, N. gonorrhoeae isolates were streaked onto Chocolate Agar [Becton Dickinson, (BD), Sparks, Md.; Lot No. 922807]; Staphylococcus aureus ATCC 29213 tested for quality control (QC) purposes was streaked onto Trypticase Soy Agar with 5% Sheep Blood (TSA II; BD; Lot No. 9219399).
For N. gonorrhoeae, a modified medium described by the ATCC as capable of supporting the growth of N. gonorrhoeae (Neisseria peptone medium) was used for the broth microdilution MIC assay. This medium contained 15 g Oxoid Special Peptone (Lot No. 1280296; Oxoid, Hampshire, UK), 1 g corn starch (Lot No. AD-13344-14; Ward's Science; Rochester, N.Y.), 5 g NaCl (Lot No. 57897; VWR, Radnor, Pa.), 4 g K2HPO4 (Lot No. SLBT7061; Sigma), and 1 g KH2PO4 (Lot No. SLBC1921V; Sigma). After autoclaving, the medium was centrifuged at 5,000×g for 10 min, the supernatant was passed through a 0.45 μm filter, and IsoVitaleX supplement (Lot No. 8323954; BD) was added at 1% (v/v).
(§2) MIC values were determined using a broth microdilution procedure described by CLSI (1, 2). Automated liquid handlers (Multidrop 384, Labsystems, Helsinki, Finland; Biomek 2000 and Biomek FX, Beckman Coulter, Fullerton Calif.) were used to conduct serial dilutions and liquid transfers.
(§3) To prepare the drug mother plates, which would provide the serial drug dilutions for the replicate daughter plates, the wells of columns 2 through 12 of standard 96-well microdilution plates (Costar 3795) were filled with 150 μl of the designated diluent for each row of drug. The test articles and comparator compounds (300 μl at 100× the highest concentration to be tested) were dispensed into the appropriate wells in column 1. The Biomek 2000 was then used to make 2-fold serial dilutions in the mother plates from column 1 through column 11. The wells of column 12 contained no drug and served as the organism growth control wells for the assay.
(§4) The daughter plates were loaded with 190 μL per well of the appropriate test medium for the tested organism using the Multidrop 384. The daughter plates were completed on the Biomek FX instrument which transferred 2 μL of drug solution from each well of a mother plate to the corresponding well of each daughter plate in a single step. Daughter plates for the testing of anaerobes were allowed to pre-reduce in the Bactron II anaerobe chamber for 2 hr prior to inoculation.

[1] = test system: Staphylococcus aureus ATCC 29213; assay: Broth microdilution MIC assay, quality control strain (Example 2); type: cell-based; conditions: ATCC29213, S. aureus ATCC 29213 (QC), CAMHB
Experimental: as §1
Cation-adjusted Mueller Hinton broth (CAMHB; BD; Lot No. 9019592) was used for MIC testing of S. aureus ATCC 29213 for QC purposes.
as §2, §3, §4
A standardized inoculum of each test organism was prepared per CLSI methods (1, 2). The inoculum for each organism was dispensed into sterile reservoirs divided by length (Beckman Coulter), and the Biomek 2000 was used to inoculate the plates. Daughter plates were placed on the Biomek 2000 work surface in reverse orientation so that inoculation took place from low to high drug concentration. Anaerobic organisms were inoculated by hand in the Bactron II anaerobic chamber. Bacterial plates were then inoculated with 10 μL of the inoculum resulting in a final cell density of approximately 5×10^5 CFU/mL.
Plates were stacked 3 to 4 high, covered with a lid on the top plate and placed in plastic bags. […] The MIC was read and recorded as the lowest concentration of drug that inhibited visible growth of the organism.

[2] = 30 isolates of N. gonorrhoeae, broth microdilution, MIC distribution
[3] = 30 isolates, broth dilution assay, MIC distribution (Table 6)

In the case of `C=C(C)C1CCC(C)=CC1c1c(O)cc(CCCCC)cc1O` (stereo not drawn) [CBD, 2-[3-methyl-6-(1-methylethenyl)-2-cyclohexen-1-yl]-5-pentyl-1,3-benzenediol], the “Effect of the resistance phenotype of the isolate on activity” value (Neisseria gonorrhoeae; 30 isolates of N. gonorrhoeae with different resistance phenotypes) is reported as “not affected by the resistance phenotype of the isolate; also recorded: independent of the resistance phenotype of the tested isolate”, the “Number of isolates at MIC value 0.015 μg/mL” value (Neisseria gonorrhoeae; [2]) is reported as 0 and the “Number of isolates at MIC value 0.03 μg/mL” value (Neisseria gonorrhoeae; [2]) is reported as 0. The “Number of isolates at MIC value 0.06 μg/mL” value (Neisseria gonorrhoeae; [2]) was 0, the “Number of isolates at MIC value 0.5 μg/mL” value (Neisseria gonorrhoeae; [2]) was 3 and the “Number of isolates at MIC value 1 μg/mL” value (Neisseria gonorrhoeae; [2]) was 10. The “Number of isolates at MIC value 2 μg/mL” value (Neisseria gonorrhoeae; [2]) was 15, the “Number of isolates at MIC value 4 μg/mL” value (Neisseria gonorrhoeae; [2]) was 0 and the “Number of isolates at MIC value 8 μg/mL” value (Neisseria gonorrhoeae; [2]) was 1. For the same compound, the “Number of isolates at MIC value >8 μg/mL” value (Neisseria gonorrhoeae; [2]) was 1, the “Number of isolates at MIC value >32 μg/mL” value (Neisseria gonorrhoeae; [2]) was 1 and the “Number of isolates at MIC value […]” value (Neisseria gonorrhoeae; [2]) was 0. The “Number of isolates at MIC 0.08 μg mL^−1” value (Neisseria gonorrhoeae; [3]) was 0, the “Number of isolates at MIC ≤0.004 μg mL^−1” value (Neisseria gonorrhoeae; [3]) was 0 and the MIC (Neisseria gonorrhoeae; Neisseria gonorrhoeae, ATCC49226, N. gonorrhoeae ATCC 49226 (QC), broth microdilution, read-out: MIC) was 2 µg/mL (≈ 6.36 µM). It also gave an MIC (Neisseria gonorrhoeae; Neisseria gonorrhoeae, N. gonorrhoeae CDC 0165 (CIP-R, AZI MIC 1), broth microdilution, read-out: MIC) of 8 µg/mL (≈ 25.4 µM), an MIC (Neisseria gonorrhoeae; Neisseria gonorrhoeae, N. gonorrhoeae CDC 0166 (CIP-R, AZI MIC 1), broth microdilution, read-out: MIC) of 2 µg/mL (≈ 6.36 µM) and an MIC (Neisseria gonorrhoeae; Neisseria gonorrhoeae, N. gonorrhoeae CDC 0167 (CIP-S, AZI MIC 8), broth microdilution, read-out: MIC) of 1 µg/mL (≈ 3.18 µM). For the same compound, the MIC (Neisseria gonorrhoeae; Neisseria gonorrhoeae, N. gonorrhoeae CDC 0172 (CIP-R, AZI MIC 0.5), broth microdilution, read-out: MIC) was 2 µg/mL (≈ 6.36 µM), the MIC (Neisseria gonorrhoeae; Neisseria gonorrhoeae, N. gonorrhoeae CDC 0175 (CIP-S, AZI MIC 16), broth microdilution, read-out: MIC) was 2 µg/mL (≈ 6.36 µM) and the MIC (Neisseria gonorrhoeae; Neisseria gonorrhoeae, N. gonorrhoeae CDC 0177 (CIP-S, AZI MIC 2), broth microdilution, read-out: MIC) was 2 µg/mL (≈ 6.36 µM). For the same compound, the MIC (Neisseria gonorrhoeae; Neisseria gonorrhoeae, N. gonorrhoeae CDC 0181 (CIP-S, AZI MIC 256), broth microdilution, read-out: MIC) was 1 µg/mL (≈ 3.18 µM), the MIC (Neisseria gonorrhoeae; Neisseria gonorrhoeae, N. gonorrhoeae CDC 0194 (CRO-NS, CIP-S, AZI MIC 0.5), broth microdilution, read-out: MIC) was 2 µg/mL (≈ 6.36 µM) and the MIC (Neisseria gonorrhoeae; Neisseria gonorrhoeae, N. gonorrhoeae MMX 6921 (CIP-R), broth microdilution, read-out: MIC) was 1 µg/mL (≈ 3.18 µM). The MIC (Neisseria gonorrhoeae; Neisseria gonorrhoeae, N. gonorrhoeae MMX 6938 (CIP-S), broth microdilution, read-out: MIC) was 2 µg/mL (≈ 6.36 µM), the MIC (Neisseria gonorrhoeae; Neisseria gonorrhoeae, N. gonorrhoeae MMX 10409 (CIP-R), broth microdilution, read-out: MIC) was 2 µg/mL (≈ 6.36 µM) and the MIC (Neisseria gonorrhoeae; Neisseria gonorrhoeae, N. gonorrhoeae MMX 10410 (CIP-S), broth microdilution, read-out: MIC) was 2 µg/mL (≈ 6.36 µM). It also gave an MIC (Neisseria gonorrhoeae; Neisseria gonorrhoeae, N. gonorrhoeae MMX 10447 (CIP-S), broth microdilution, read-out: MIC) of 1 µg/mL (≈ 3.18 µM), an MIC (Neisseria gonorrhoeae; Neisseria gonorrhoeae, N. gonorrhoeae MMX 10450 (CIP-S), broth microdilution, read-out: MIC) of 0.5 µg/mL (≈ 1.59 µM) and an MIC (Neisseria gonorrhoeae; Neisseria gonorrhoeae, N. gonorrhoeae MMX 10452 (CIP-R), broth microdilution, read-out: MIC) of 2 µg/mL (≈ 6.36 µM). The MIC (Neisseria gonorrhoeae; Neisseria gonorrhoeae, N. gonorrhoeae MMX 10454 (CIP-R), broth microdilution, read-out: MIC) was 1 µg/mL (≈ 3.18 µM), the MIC (Neisseria gonorrhoeae; Neisseria gonorrhoeae, NCTC13477, N. gonorrhoeae NCTC 13477 (WHO F; CIP-S, AZI MIC […]), broth microdilution, read-out: MIC) was 0.5 µg/mL (≈ 1.59 µM) and the MIC (Neisseria gonorrhoeae; Neisseria gonorrhoeae, NCTC13478, N. gonorrhoeae NCTC 13478 (WHO G; CIP-I, AZI MIC […]), broth microdilution, read-out: MIC) was 2 µg/mL (≈ 6.36 µM). For the same compound, the MIC (Neisseria gonorrhoeae; Neisseria gonorrhoeae, NCTC13479, N. gonorrhoeae NCTC 13479 (WHO K; CIP-R, AZI MIC […]), broth microdilution, read-out: MIC) was 2 µg/mL (≈ 6.36 µM), the MIC (Neisseria gonorrhoeae; Neisseria gonorrhoeae, NCTC13480, N. gonorrhoeae NCTC 13480 (WHO L; CIP-R, AZI MIC 0.5), broth microdilution, read-out: MIC) was 0.5 µg/mL (≈ 1.59 µM) and the MIC (Neisseria gonorrhoeae; Neisseria gonorrhoeae, NCTC13481, N. gonorrhoeae NCTC 13481 (WHO M; CIP-R, AZI MIC […]), broth microdilution, read-out: MIC) was 1 µg/mL (≈ 3.18 µM). The MIC (Neisseria gonorrhoeae; Neisseria gonorrhoeae, NCTC13482, N. gonorrhoeae NCTC 13482 (WHO N; CIP-R, AZI MIC […]), broth microdilution, read-out: MIC) was 2 µg/mL (≈ 6.36 µM), the MIC (Neisseria gonorrhoeae; Neisseria gonorrhoeae, NCTC13483, N. gonorrhoeae NCTC 13483 (WHO O; CIP-S, AZI MIC […]), broth microdilution, read-out: MIC) was 2 µg/mL (≈ 6.36 µM) and the MIC (Neisseria gonorrhoeae; Neisseria gonorrhoeae, NCTC13484, N. gonorrhoeae NCTC 13484 (WHO P; CIP-S, AZI MIC 4), broth microdilution, read-out: MIC) was over 32 µg/mL. It also gave an MIC (Neisseria gonorrhoeae; Neisseria gonorrhoeae, NCTC13817, N. gonorrhoeae NCTC 13817 (WHO U; CIP-S, AZI MIC 4), broth microdilution, read-out: MIC) of 1 µg/mL (≈ 3.18 µM), an MIC (Neisseria gonorrhoeae; Neisseria gonorrhoeae, NCTC13818, N. gonorrhoeae NCTC 13818 (WHO V; CIP-R, AZI MIC >256), broth microdilution, read-out: MIC) of 1 µg/mL (≈ 3.18 µM) and an MIC (Neisseria gonorrhoeae; Neisseria gonorrhoeae, NCTC13819, N. gonorrhoeae NCTC 13819 (WHO W; CIP-R, AZI MIC 0.5), broth microdilution, read-out: MIC) of 1 µg/mL (≈ 3.18 µM). For the same compound, the MIC (Neisseria gonorrhoeae; Neisseria gonorrhoeae, NCTC13820, N. gonorrhoeae NCTC 13820 (WHO X; CRO-NS, CIP-R, AZI MIC 0.5), broth microdilution, read-out: MIC) was 2 µg/mL (≈ 6.36 µM), the MIC (Neisseria gonorrhoeae; Neisseria gonorrhoeae, NCTC13821, N. gonorrhoeae NCTC 13821 (WHO Y; CIP-R, AZI MIC 1), broth microdilution, read-out: MIC) was 1 µg/mL (≈ 3.18 µM) and the MIC50 (Neisseria gonorrhoeae; Neisseria gonorrhoeae, 30 isolates of N. gonorrhoeae, broth microdilution, read-out: MIC50) was 2 µg/mL (≈ 6.36 µM). The MIC90 (Neisseria gonorrhoeae; Neisseria gonorrhoeae, 30 isolates of N. gonorrhoeae, broth microdilution, read-out: MIC90) was 2 µg/mL (≈ 6.36 µM), the MIC (Neisseria gonorrhoeae; Neisseria gonorrhoeae, 30 isolates of N. gonorrhoeae, broth microdilution, read-out: MIC Mode) was 2 µg/mL (≈ 6.36 µM) and the MIC [1] was 0.5 µg/mL (≈ 1.59 µM).
